Assay results as given in US8927130B2, “Electrolyte for redox flow battery and redox flow battery including the same” (Samsung Electronics Co., Ltd., priority 2011, dated 2015).

Test: Cyclic voltammetry of electrolytes for 100 cycles
Assay type: physicochemical
Conditions: in the electrolytes of Examples 1 and 2 (GBL, 0.5 M TEABF4), cyclic voltammetry 100 cycles
Protocol: A current value as a function of potential was measured for 100 cycles by using each of the electrolytes of Examples 1 and 2, at a potential scan rate of 10 mV/s and in a potential scan range of about −2 V to about 1.25 V. A cell for measuring the cyclic voltammogram included an Ag/Ag^+ electrode in which 0.3 M of AgNO3 was dissolved in acetonitrile as a solvent as a reference electrode, carbon felt as a working electrode, and platinum as a counter electrode. The measurement results are illustrated in FIGS. 6A and 6B.

For O=S(=O)([N-]S(=O)(=O)C(F)(F)F)C(F)(F)F.O=S(=O)([N-]S(=O)(=O)C(F)(F)F)C(F)(F)F.[Ni+2].c1ccc(-c2ccccn2)nc1.c1ccc(-c2ccccn2)nc1.c1ccc(-c2ccccn2)nc1 [Preparation Example 1, Ni(bpy)3(TFSI)2], the “stability of the redox couple of the metal salt in the electrolyte” value was “stable”.
